Measurements reported in patent publication US12077503B2, “Substituted cyclic amides and their use as herbicides” (FMC CORPORATION, priority 2015, dated 2024).
Like-named read-outs stand apart in the source and are kept apart here.

Assays:
Format in all cases: in vivo
[1] = test system: giant foxtail (Setaria faberii); assay: Test A preemergence; details: Setaria faberi, pre-emergence, 240 h; for pest or weed control at 125 g/ha: 125 g ai/ha; for pest or weed control at 500 g/ha: 500 g ai/ha
How it was run: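 Preemergence directed soil spray on seeded pots, or postemergence application to plants 2–10 cm, one- to two-leaf. Solvent mixture non-phytotoxic, with surfactant. Scored ~10 d later, visually, 0–100 vs untreated.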

[2] = test system: barnyardgrass (Echinochloa crus-galli); assay: Test B flooded paddy test; details: Echinochloa crus-galli, Flood, 250 g ai/ha
How it was run: (§1)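 Evaluation by eye, against controls, occurred 13–15 d post-treatment in a greenhouse, using a 0 (no effect) to 100 (complete control) scale. Application was into the paddy water, 3 cm deep over the soil, on 2-leaf plants.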

[3] = test system: rice (Oryra sativa); assay: Test B flooded paddy test; details: Oryza sativa, Flood, 250 g ai/ha
How it was run: as §1

[4] = test system: sedge, umbrella (small-flower umbrella sedge, Cyperus difformis); assay: Test B flooded paddy test; details: Cyperus difformis, Flood, 250 g ai/ha
How it was run: as §1

[5] = test system: ducksalad (Heteranthera limosa); assay: Test B flooded paddy test; details: Heteranthera limosa, Flood, 250 g ai/ha
How it was run: as §1

[6] = preemergence, visual rating after approx. 10 d, 0 to 100 scale where 0 is no effect and 100 is complete control, read-out: Plant response rating, Foxtail, Giant
[7] = scale of 0 to 100 where 0 is no effect and 100 is complete control, read-out: Barnyardgrass plant response rating
[8] = scale of 0 to 100 where 0 is no effect and 100 is complete control, read-out: Rice plant response rating
[9] = scale of 0 to 100 where 0 is no effect and 100 is complete control, read-out: Sedge, Umbrella plant response rating
[10] = scale of 0 to 100 where 0 is no effect and 100 is complete control, read-out: Ducksalad plant response rating
[11] = preemergence, 0 to 100 scale, 0 = no effect, 100 = complete control, read-out: Plant response rating, Foxtail, Giant

CN1C[C@H](c2cccc([N+](=O)[O-])c2)[C@@H](C(=O)Nc2cccc(F)c2F)C1=O (racemic) [Compound 776]
pest or weed control at 125 g/ha [1, 6]: 90%
pest or weed control at 500 g/ha ([1]; Preemergence, visual injury vs untreated controls after approximately 10 d, read-out: Foxtail, Giant plant response rating (0 to 100 scale where 0 is no effect and 100 is complete control)): 100%
pest or weed control at 250 g/ha [2, 7]: 80%
pest or weed control at 250 g/ha [3, 8]: 0%
pest or weed control at 250 g/ha [4, 9]: 0%
pest or weed control at 250 g/ha [5, 10]: 80%

C=CN1C[C@H](c2ccc(C)c(F)c2)[C@@H](C(=O)Nc2cccc(F)c2F)C1=O (racemic) [Compound 1332]
pest or weed control at 500 g/ha ([1]; preemergence, 0 to 100 scale (0 no effect, 100 complete control), read-out: Plant response rating, Foxtail, Giant): 90%
pest or weed control at 125 g/ha ([1]; Preemergence, 0 to 100 scale (0 no effect, 100 complete control), read-out: Plant response rating, Foxtail, Giant): 80%
pest or weed control at 250 g/ha ([2]; 360 h, visually evaluated after 13 to 15 d, read-out: Plant response rating, Barnyardgrass (0 to 100 scale where 0 is no effect and 100 is complete control)): 0%
pest or weed control at 250 g/ha ([3]; 360 h, visually evaluated after 13 to 15 d, read-out: Plant response rating, Rice (0 to 100 scale where 0 is no effect and 100 is complete control)): 0%
pest or weed control at 250 g/ha ([4]; 360 h, visually evaluated after 13 to 15 d, read-out: Plant response rating, Sedge, Umbrella (0 to 100 scale where 0 is no effect and 100 is complete control)): 0%
pest or weed control at 250 g/ha ([5]; 360 h, visually evaluated after 13 to 15 d, read-out: Plant response rating, Ducksalad (0 to 100 scale where 0 is no effect and 100 is complete control)): 100%

Cc1cc([C@H]2CNC(=O)[C@@H]2C(=O)Nc2ccccc2F)ccc1F [Compound 717]
pest or weed control at 125 g/ha [1, 6]: 80%
pest or weed control at 500 g/ha [1, 11]: 90%
pest or weed control at 250 g/ha [2, 7]: 60%
pest or weed control at 250 g/ha [3, 8]: 0%
pest or weed control at 250 g/ha [4, 9]: 0%
pest or weed control at 250 g/ha [5, 10]: 100%

Cc1cc([C@H]2CNC(=O)[C@@H]2C(=O)Nc2ccc(F)cc2F)ccc1F [Compound 718]
pest or weed control at 125 g/ha [1, 6]: 70%
pest or weed control at 500 g/ha [1, 11]: 90%
pest or weed control at 250 g/ha [2, 7]: 40%
pest or weed control at 250 g/ha [3, 8]: 0%
pest or weed control at 250 g/ha [4, 9]: 0%
pest or weed control at 250 g/ha [5, 10]: 100%

Cc1cc([C@H]2CN(C)C(=O)[C@@H]2C(=O)Nc2ccc(F)c(F)c2F)ccc1F [Compound 719]
pest or weed control at 125 g/ha [1, 6]: 90%
pest or weed control at 500 g/ha [1, 11]: 90%
pest or weed control at 250 g/ha [2, 7]: 85%
pest or weed control at 250 g/ha [3, 8]: 0%
pest or weed control at 250 g/ha [4, 9]: 0%
pest or weed control at 250 g/ha [5, 10]: 100%

Cc1ccc([C@H]2CNC(=O)[C@@H]2C(=O)Nc2cccc(F)c2F)c(F)c1 [Compound 720]
pest or weed control at 125 g/ha [1, 6]: 60%
pest or weed control at 500 g/ha [1, 11]: 90%
pest or weed control at 250 g/ha [2, 7]: 30%
pest or weed control at 250 g/ha [3, 8]: 0%
pest or weed control at 250 g/ha [4, 9]: 0%
pest or weed control at 250 g/ha [5, 10]: 100%

C=CCN1C[C@H](c2ccc(OC)c(F)c2)[C@@H](C(=O)Nc2cccc(F)c2F)C1=O [Compound 722]
pest or weed control at 125 g/ha [1, 6]: 50%
pest or weed control at 500 g/ha [1, 11]: 80%
pest or weed control at 250 g/ha [2, 7]: 0%
pest or weed control at 250 g/ha [3, 8]: 0%
pest or weed control at 250 g/ha [4, 9]: 0%
pest or weed control at 250 g/ha [5, 10]: 0%

C=CCN1C[C@H](c2ccc(OC)c(F)c2)[C@@H](C(=O)Nc2ccccc2S(C)(=O)=O)C1=O [Compound 724]
pest or weed control at 125 g/ha [1, 6]: 0%
pest or weed control at 500 g/ha [1, 11]: 0%
pest or weed control at 250 g/ha [2, 7]: 0%
pest or weed control at 250 g/ha [3, 8]: 0%
pest or weed control at 250 g/ha [4, 9]: 0%
pest or weed control at 250 g/ha [5, 10]: 0%

Cc1cc([C@H]2CNC(=O)[C@@H]2C(=O)Nc2ccc(F)cc2F)ccc1Br [Compound 725]
pest or weed control at 125 g/ha [1, 6]: 90%
pest or weed control at 500 g/ha [1, 11]: 90%
pest or weed control at 250 g/ha [2, 7]: 0%
pest or weed control at 250 g/ha [3, 8]: 0%
pest or weed control at 250 g/ha [4, 9]: 0%
pest or weed control at 250 g/ha [5, 10]: 100%

Cc1ccc([C@H]2CNC(=O)[C@@H]2C(=O)Nc2cccc(F)c2F)s1 [Compound 729]
pest or weed control at 125 g/ha [1, 6]: 0%
pest or weed control at 500 g/ha [1, 11]: 0%
pest or weed control at 250 g/ha [2, 7]: 60%
pest or weed control at 250 g/ha [3, 8]: 0%
pest or weed control at 250 g/ha [4, 9]: 0%
pest or weed control at 250 g/ha [5, 10]: 100%

CSc1ccccc1NC(=O)[C@H]1C(=O)N(C)C[C@@H]1c1ccc(C)c(C)c1 [Compound 733]
pest or weed control at 125 g/ha [1, 6]: 90%
pest or weed control at 500 g/ha [1, 11]: 90%
pest or weed control at 250 g/ha [2, 7]: 20%
pest or weed control at 250 g/ha [3, 8]: 0%
pest or weed control at 250 g/ha [4, 9]: 0%
pest or weed control at 250 g/ha [5, 10]: 60%
